Patent US20240287138A1, “CYCLIC PEPTIDES FOR INHIBITING TNF RECEPTOR 1 ACTIVITY” (Merck Sharp & Dohme LLC, priority 2023, published 2024)
pIC50, pKd: −log10 of the molar value. Numbered stars: 1 amine (or outer) side, 2 acyl side, 3 side chain; on linkers, the order of the positions; unused ones are H or OH. Bridge positions count the residues as written; N and C are the ends. Square brackets hold non-standard residues; d marks the D form. Peptide text beside a SMILES is read from it. * marks the point of attachment. Trp(βS-Me,7-OMe) = COc1cccc2c([C@H](C)[C@H](N)C(=O)O)c[nH]c12; cBu(1-CO,cis-3-CH2NH) = O=C([C@H]1C[C@@H](CN[*:1])C1)[*:2]; Trp(4-Cl) = N[C@@H](Cc1c[nH]c2cccc(Cl)c12)C(=O)O; Trp(7-Cl) = N[C@@H](Cc1c[nH]c2c(Cl)cccc12)C(=O)O; Phe(4-COOH) = N[C@@H](Cc1ccc(C(=O)O)cc1)C(=O)O; Trp(7-aza) = N[C@@H](Cc1c[nH]c2ncccc12)C(=O)O; X10 = O=C([C@H](Cc1ccnc2ccccc12)N[*:1])[*:2]; Phe(4-CH2NH2) = NCc1ccc(C[C@H](N)C(=O)O)cc1; X2 = C[C@@H]1CC[C@@H](C(=O)[*:2])N([*:1])C1; αMeW = C[C@](N)(Cc1c[nH]c2ccccc12)C(=O)O; X1 = O=C([C@@H]1CC[C@H](N[*:1])C1)[*:2]; X6 = O=C([C@@H](N[*:1])C1(O)CC1)[*:2]; Pip(4-aza) = O=C(O)[C@@H]1CNCCN1; 4Pal = N[C@@H](Cc1ccncc1)C(=O)O; NMeE = CN[C@@H](CCC(=O)O)C(=O)O; αMeS = C[C@](N)(CO)C(=O)O; Carboxymethyl = O=C(O)C*; Nle = CCCC[C@H](N)C(=O)O; Sar = CNCC(=O)O

Assays:
[1] = biological target: T1, human TNFR1 extracellular domain (ECD) protein (Homo sapiens, UniProt P19438); assay: SPR binding affinity to captured human TNFR1 ECD
T1 construct: HRV 3C protease cleavage site (C); 6His (C, cleaved yes); made in house; host or cells: Sf21 insect cells (baculovirus), secreted
T1 sequence (P19438 30-211): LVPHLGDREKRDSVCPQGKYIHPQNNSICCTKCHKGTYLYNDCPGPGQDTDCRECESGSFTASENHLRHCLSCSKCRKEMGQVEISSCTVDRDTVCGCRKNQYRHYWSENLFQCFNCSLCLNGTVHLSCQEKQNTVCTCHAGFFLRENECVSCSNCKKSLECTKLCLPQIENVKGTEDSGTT
How it was run: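 Biotinylated avi-tagged human TNFR1 or TNFR2 ECD, expressed in Sf21 insect cells, captured on streptavidin SPR chip; peptide analytes run in 10 mM HEPES pH 7.4, 150 mM NaCl, 3 mM EDTA, 0.05% P20, 2% DMSO. kon and koff measured, affinity KA calculated.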

[2] = biological target: T2, human soluble TNFR1 (sTNFR1) (Homo sapiens, UniProt P19438); assay: Human sTNFR1-peptide displacement assay (LanthaScreen Eu TR-FRET binding assay)
T2 construct: made in house; host or cells: Sf21 (baculovirus)
T2 sequence (P19438 with tags, fused parts or gaps): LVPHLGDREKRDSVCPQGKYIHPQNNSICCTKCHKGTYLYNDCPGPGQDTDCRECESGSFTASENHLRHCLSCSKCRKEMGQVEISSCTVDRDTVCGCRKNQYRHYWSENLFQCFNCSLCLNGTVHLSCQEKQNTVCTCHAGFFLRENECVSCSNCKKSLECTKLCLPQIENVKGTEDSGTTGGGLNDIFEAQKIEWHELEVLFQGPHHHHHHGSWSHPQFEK
How it was run: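 Readout is the 665/615 nm TR-FRET ratio (Eu anti-His donor, streptavidin-Alexa647 acceptor), normalized to DMSO and saturating displacer, fit by Morrison-based five-parameter logistic for Kd^app. His-tagged sTNFR1 (1-211) prebound to 100 nM biotinylated peptide SEQ ID NO.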

| Compound | pKd [1] | pIC50 [2] | pKd [2] |
| --- | --- | --- | --- |
| CCCC[C@@H]1NC(=O)[C@H]2C[C@@H](CNC(=O)[C@H]([C@@H](C)c3c[nH]c4c(OC)cccc34)NC(=O)CN(C)C(=O)[C@H](Cc3ccc(O)cc3)NC(=O)[C@H](Cc3ccc(C(=O)O)cc3)NC(=O)[C@](C)(CO)NC(=O)[C@H](Cc3c[nH]c4c(Cl)cccc34)NC(=O)[C@H](Cc3ccncc3)NC(=O)[C@H](CC(N)=O)NC(=O)[C@H](CCC(=O)O)N(C)C(=O)[C@H](Cc3c[nH]c4ccccc34)NC(=O)[C@@H]3CNCCN3C(=O)[C@H](Cc3ccncc3)NC1=O)C2 [SEQ ID NO. 268] (cyclo([4Pal][Trp(7-Cl)][αMeS][Phe(4-COOH)]Y[Sar][Trp(βS-Me,7-OMe)][cBu(1-CO,cis-3-CH2NH)][Nle][4Pal][Pip(4-aza)]W[NMeE]N)) | 9.57 | 9.11 | 9.35 |
| CCCC[C@@H]1NC(=O)CSC[C@@H](C(N)=O)NC(=O)[C@H]([C@@H](C)c2c[nH]c3c(OC)cccc23)NC(=O)CN(C)C(=O)[C@H](Cc2ccc(O)cc2)NC(=O)[C@H](Cc2ccc(C(=O)O)cc2)NC(=O)[C@](C)(CO)NC(=O)[C@H](Cc2c[nH]c3c(Cl)cccc23)NC(=O)[C@H](Cc2ccncc2)NC(=O)[C@H](CC(N)=O)NC(=O)[C@H](CCC(=O)O)N(C)C(=O)[C@H](Cc2c[nH]c3ccccc23)NC(=O)[C@@H]2CC[C@@H](C)CN2C(=O)[C@H](Cc2ccncc2)NC1=O [SEQ ID NO. 272] ({CH2CO}-[Nle][4Pal][X2]W[NMeE]N[4Pal][Trp(7-Cl)][αMeS][Phe(4-COOH)]Y[Sar][Trp(βS-Me,7-OMe)]C-NH2; thioether N-14) | 10.00 | 9.52 | 9.68 |
| C[C@@]1(CO)NC(=O)[C@H](Cc2c[nH]c3ncccc23)NC(=O)[C@H](Cc2ccncc2)NC(=O)[C@H](CC(N)=O)NC(=O)[C@H]2CCCN2C(=O)[C@H](Cc2ccnc3ccccc23)NC(=O)[C@H](CO)NC(=O)[C@H](Cc2ccncc2)NC(=O)[C@H](CCC(N)=O)NC(=O)CSC[C@@H](C(N)=O)NC(=O)[C@H](Cc2c[nH]c3cccc(Cl)c23)NC(=O)[C@@H]2CCCN2C(=O)[C@H](Cc2ccc(O)cc2)NC(=O)[C@H](Cc2ccc(C(=O)O)cc2)NC1=O [SEQ ID NO. 278] ({CH2CO}-Q[4Pal]S[X10][dP]N[4Pal][Trp(7-aza)][αMeS][Phe(4-COOH)]YP[Trp(4-Cl)]C-NH2; thioether N-14) | 7.89 | 8.06 |  |
| CCCC[C@@H]1NC(=O)CSC[C@@H](C(N)=O)NC(=O)[C@](C)(Cc2c[nH]c3ccccc23)NC(=O)CN(C)C(=O)[C@H](Cc2ccc(O)cc2)NC(=O)[C@H](Cc2ccc(C(=O)O)cc2)NC(=O)[C@](C)(CO)NC(=O)[C@H](Cc2c[nH]c3c(Cl)cccc23)NC(=O)[C@H](Cc2ccncc2)NC(=O)[C@H](CC(N)=O)NC(=O)[C@H](CCC(=O)O)N(C)C(=O)[C@H](Cc2c[nH]c3ncccc23)NC(=O)[C@H](C2(O)CC2)NC(=O)[C@H](Cc2ccncc2)NC1=O [SEQ ID NO. 281] ({CH2CO}-[Nle][4Pal][X6][Trp(7-aza)][NMeE]N[4Pal][Trp(7-Cl)][αMeS][Phe(4-COOH)]Y[Sar][αMeW]C-NH2; thioether N-14) | 9.30 | 8.85 |  |
| CCCC[C@@H]1NC(=O)CSC[C@@H](C(N)=O)NC(=O)[C@](C)(Cc2c[nH]c3ccccc23)NC(=O)CN(C)C(=O)[C@H](Cc2ccc(O)cc2)NC(=O)[C@H](Cc2ccc(OCC(=O)O)cc2)NC(=O)[C@](C)(CO)NC(=O)[C@H](Cc2c[nH]c3c(Cl)cccc23)NC(=O)[C@H](Cc2ccncc2)NC(=O)[C@H](CC(N)=O)NC(=O)[C@H](CCC(=O)O)N(C)C(=O)[C@H](Cc2c[nH]c3ncccc23)NC(=O)[C@H](CO)NC(=O)[C@H](Cc2ccc(CN)cc2)NC1=O [SEQ ID NO. 283] ({CH2CO}-[Nle][Phe(4-CH2NH2)]S[Trp(7-aza)][NMeE]N[4Pal][Trp(7-Cl)][αMeS]Y(Carboxymethyl)Y[Sar][αMeW]C-NH2; thioether N-14) | 9.30 | 8.84 |  |
| CCCC[C@@H]1NC(=O)[C@@H]2CC[C@@H](C2)NC(=O)[C@H]([C@@H](C)c2c[nH]c3c(OC)cccc23)NC(=O)CN(C)C(=O)[C@H](Cc2ccc(O)cc2)NC(=O)[C@H](Cc2ccc(C(=O)O)cc2)NC(=O)[C@](C)(CO)NC(=O)[C@H](Cc2c[nH]c3c(Cl)cccc23)NC(=O)[C@H](Cc2ccc(C(=O)O)cc2)NC(=O)[C@H](CC(N)=O)NC(=O)[C@H](CCC(=O)O)N(C)C(=O)[C@H](Cc2c[nH]c3ccccc23)NC(=O)[C@@H]2CNCCN2C(=O)[C@H](Cc2ccncc2)NC1=O [SEQ ID NO. 288] (cyclo([4Pal][Pip(4-aza)]W[NMeE]N[Phe(4-COOH)][Trp(7-Cl)][αMeS][Phe(4-COOH)]Y[Sar][Trp(βS-Me,7-OMe)][X1][Nle])) | 10.00 | 9.70 | 9.96 |
